pIC50: −log10 of the molar value.
Assays:
[1] = Phase 1 part B: safety (TEAEs); type: in vivo, human; details: for Any TEAE / Serious TEAE / Severe TEAE / TEAE leading to death / TEAE leading to discontinuation / Abdominal pain upper (TEAE by preferred term) / Decreased appetite (TEAE by preferred term) / Dry skin (TEAE by preferred term) / Headache (TEAE by preferred term) / Skin exfoliation (TEAE by preferred term) / Skin lesion (TEAE by preferred term): Part B, 40 mg; for participants reporting skin exfoliation / participants who experienced a TEAE / number of TEAEs reported: part B
Protocol: Participants were admitted to the clinical unit the day before doses were administered on days 1 and 8 and discharged on days 2 and 9, after collection of the 36‐hour postdose PK sample. The washout period between doses was 7 days. […] After dosing, participants were required to remain upright for at least 2 hours and refrain from food and drink for at least 4 hours; water was allowed after 2 hours.
Safety was assessed from the signing of informed consent until the end of study and included the following variables: treatment‐emergent adverse events (TEAEs), serious adverse events (SAEs), clinical laboratory tests (clinical chemistry, hematology, coagulation [part A only], and urinalysis), vital signs, 12‐lead ECG, primary Holter monitoring, and physical examinations (including evaluation of teeth and gingiva, and evaluation of palms and soles). Because of the mechanism of action of brensocatib, findings of hyperkeratosis, periodontitis/gingivitis, and other infections were reported as adverse events of special interest (AESIs). Renal function (part A only) was monitored by measuring serum creatinine and blood urea nitrogen, performing routine urinalysis, and measuring neutrophil gelatinase–associated lipocalin and cystatin.
Adverse events (AEs) observed before the first dosing were recorded as medical history. All medical history and AEs were coded using the Medical Dictionary for Regulatory Activities (version 21.1 or higher). A TEAE was defined as an AE that began or worsened in severity after at least 1 dose of study drug was administered. All AEs experienced by a participant were monitored until the event had resolved, any abnormal laboratory values returned to baseline or stabilized, a satisfactory explanation for the changes was identified, or the participant was lost to follow‐up.

[2] = set-up: method as in unpublished data; details: healthy adults; ref unpublished data; cited from earlier work
CYP2D6 = tested on: CYP2D6; set-up: method as in unpublished data; details: ref unpublished data, read-out: half maximal inhibitory concentration; cited from earlier work
CYP3A4/5 = tested on: CYP3A4/5; set-up: method as in unpublished data; details: ref unpublished data, read-out: half maximal inhibitory concentration; cited from earlier work
CYP1A2 = tested on: CYP1A2; set-up: method as in unpublished data; details: ref unpublished data; cited from earlier work
[3] = tested on: organic anion transporting polypeptides; set-up: method as in unpublished data; details: ref unpublished data, read-out: half maximal inhibitory concentration; cited from earlier work
neutrophil elastase = tested on: neutrophil elastase; set-up: method as in PMID 29484635; details: cited from earlier work

Structure (SMILES): Cn1c(=O)oc2ccc(-c3ccc(C[C@@H](C#N)NC(=O)[C@@H]4CNCCCO4)cc3)cc21 [Brensocatib]
- Any TEAE ([1]; Japanese, Fasted (n=5)): 0 n (%)
- Serious TEAE ([1]; Japanese, Fasted (n=5)): 0 n (%)
- Severe TEAE ([1]; Japanese, Fasted (n=5)): 0 n (%)
- TEAE leading to death ([1]; Japanese, Fasted (n=5)): 0 n (%)
- TEAE leading to discontinuation ([1]; Japanese, Fasted (n=5)): 0 n (%)
- Abdominal pain upper (TEAE by preferred term) ([1]; Japanese, Fasted (n=10)): 0 n (%)
- Decreased appetite (TEAE by preferred term) ([1]; Japanese, Fasted (n=10)): 0 n (%)
- Dry skin (TEAE by preferred term) ([1]; Japanese, Fasted (n=10)): 0 n (%)
- Headache (TEAE by preferred term) ([1]; Japanese, Fasted (n=10)): 0 n (%)
- Skin exfoliation (TEAE by preferred term) ([1]; Japanese, Fasted (n=10)): 0 n (%)
- Skin lesion (TEAE by preferred term) ([1]; Japanese, Fasted (n=10)): 0 n (%)
- Any TEAE ([1]; Japanese, Fed (n=5)): 3 (60.0) n (%)
- Serious TEAE ([1]; Japanese, Fed (n=5)): 0 n (%)
- Severe TEAE ([1]; Japanese, Fed (n=5)): 0 n (%)
- TEAE leading to death ([1]; Japanese, Fed (n=5)): 0 n (%)
- TEAE leading to discontinuation ([1]; Japanese, Fed (n=5)): 0 n (%)
- Abdominal pain upper (TEAE by preferred term) ([1]; Japanese, Fed (n=9)): 1 (11.1) n (%)
- Decreased appetite (TEAE by preferred term) ([1]; Japanese, Fed (n=9)): 1 (11.1) n (%)
- Dry skin (TEAE by preferred term) ([1]; Japanese, Fed (n=9)): 0 n (%)
- Headache (TEAE by preferred term) ([1]; Japanese, Fed (n=9)): 1 (11.1) n (%)
- Skin exfoliation (TEAE by preferred term) ([1]; Japanese, Fed (n=9)): 1 (11.1) n (%)
- Skin lesion (TEAE by preferred term) ([1]; Japanese, Fed (n=9)): 0 n (%)
- Abdominal pain upper (TEAE by preferred term) ([1]; Japanese, Total (N=10)): 1 (10.0) n (%)
- Any TEAE ([1]; Japanese, Total (N=10)): 3 (30.0) n (%)
- Decreased appetite (TEAE by preferred term) ([1]; Japanese, Total (N=10)): 1 (10.0) n (%)
- Dry skin (TEAE by preferred term) ([1]; Japanese, Total (N=10)): 0 n (%)
- Headache (TEAE by preferred term) ([1]; Japanese, Total (N=10)): 1 (10.0) n (%)
- Serious TEAE ([1]; Japanese, Total (N=10)): 0 n (%)
- Severe TEAE ([1]; Japanese, Total (N=10)): 0 n (%)
- Skin exfoliation (TEAE by preferred term) ([1]; Japanese, Total (N=10)): 1 (10.0) n (%)
- Skin lesion (TEAE by preferred term) ([1]; Japanese, Total (N=10)): 0 n (%)
- TEAE leading to death ([1]; Japanese, Total (N=10)): 0 n (%)
- TEAE leading to discontinuation ([1]; Japanese, Total (N=10)): 0 n (%)
- Any TEAE ([1]; White, Fasted (n=5)): 1 (20.0) n (%)
- Serious TEAE ([1]; White, Fasted (n=5)): 0 n (%)
- Severe TEAE ([1]; White, Fasted (n=5)): 0 n (%)
- TEAE leading to death ([1]; White, Fasted (n=5)): 0 n (%)
- TEAE leading to discontinuation ([1]; White, Fasted (n=5)): 0 n (%)
- Abdominal pain upper (TEAE by preferred term) ([1]; White, Fasted (n=10)): 0 n (%)
- Decreased appetite (TEAE by preferred term) ([1]; White, Fasted (n=10)): 0 n (%)
- Dry skin (TEAE by preferred term) ([1]; White, Fasted (n=10)): 0 n (%)
- Headache (TEAE by preferred term) ([1]; White, Fasted (n=10)): 0 n (%)
- Skin exfoliation (TEAE by preferred term) ([1]; White, Fasted (n=10)): 0 n (%)
- Skin lesion (TEAE by preferred term) ([1]; White, Fasted (n=10)): 1 (10.0) n (%)
- Any TEAE ([1]; White, Fed (n=5)): 2 (40.0) n (%)
- Serious TEAE ([1]; White, Fed (n=5)): 0 n (%)
- Severe TEAE ([1]; White, Fed (n=5)): 0 n (%)
- TEAE leading to death ([1]; White, Fed (n=5)): 0 n (%)
- TEAE leading to discontinuation ([1]; White, Fed (n=5)): 0 n (%)
- Abdominal pain upper (TEAE by preferred term) ([1]; White, Fed (n=10)): 0 n (%)
- Decreased appetite (TEAE by preferred term) ([1]; White, Fed (n=10)): 0 n (%)
- Dry skin (TEAE by preferred term) ([1]; White, Fed (n=10)): 1 (10.0) n (%)
- Headache (TEAE by preferred term) ([1]; White, Fed (n=10)): 0 n (%)
- Skin exfoliation (TEAE by preferred term) ([1]; White, Fed (n=10)): 1 (10.0) n (%)
- Skin lesion (TEAE by preferred term) ([1]; White, Fed (n=10)): 0 n (%)
- Abdominal pain upper (TEAE by preferred term) ([1]; White, Total (N=10)): 0 n (%)
- Any TEAE ([1]; White, Total (N=10)): 3 (30.0) n (%)
- Decreased appetite (TEAE by preferred term) ([1]; White, Total (N=10)): 0 n (%)
- Dry skin (TEAE by preferred term) ([1]; White, Total (N=10)): 1 (10.0) n (%)
- Headache (TEAE by preferred term) ([1]; White, Total (N=10)): 0 n (%)
- Serious TEAE ([1]; White, Total (N=10)): 0 n (%)
- Severe TEAE ([1]; White, Total (N=10)): 0 n (%)
- Skin exfoliation (TEAE by preferred term) ([1]; White, Total (N=10)): 1 (10.0) n (%)
- Skin lesion (TEAE by preferred term) ([1]; White, Total (N=10)): 1 (10.0) n (%)
- TEAE leading to death ([1]; White, Total (N=10)): 0 n (%)
- TEAE leading to discontinuation ([1]; White, Total (N=10)): 0 n (%)
- participants reporting skin exfoliation ([1]; Japanese): 10.0%
- participants who experienced a TEAE ([1]; Japanese): 30.0%
- number of TEAEs reported ([1]; Japanese, fasted conditions): none
- number of TEAEs reported ([1]; Japanese, fed conditions): 4
- participants reporting skin exfoliation ([1]; White): 10.0%
- participants who experienced a TEAE ([1]; White): 30.0%
- number of TEAEs reported ([1]; White, fasted conditions): 1
- number of TEAEs reported ([1]; White, fed conditions): 2
- excreted in urine as unchanged [2]: ≈ 20%
- pIC50 (CYP2D6): < 4.52
- pIC50 (CYP3A4/5): < 4.52
- CYP induction (significant inducer or not) (CYP1A2): not a significant
- pIC50 [3]: < 4.96
- inhibition of the activity of neutrophil elastase in blood (neutrophil elastase): exposure‐dependent

— paper PMC9322451 (Clinical Pharmacology in Drug Development, 2022)
